# Entries after “also recorded” stand apart in the source; their conditions may differ.
# What was measured:
# oestrogen receptors [1] = assay: Xenooestrogen activity: luciferase activity in liver and brain of transgenic mice injected s.c. with DDT; assay type: in vivo, mouse; conditions: s.c. 5000 μg/ml
# Method: (§1) To verify the expression of the transgene in the different tissues and its inducibility by oestrogens, 4 independent experiments were carried out on 8 female individuals of each line (4 heterozygotic and 4 homozygotic). For each experiment, two female individuals were ovariectomised. […] The suspension was frozen and thawed three times, and centrifuged for 30 minutes at 13,000 g; the supernatant was collected and equal quantities of protein, measured by the colorimetric method of Bradford, were subjected to enzymatic testing to reveal the activity of the enzyme luciferase. The method for detection of the activity of the reporter was carried out with a kit by the procedure recommended by the producer (Sigma), mixing ca. 20 μg of protein extract with the luciferin substrate in the presence of 0.5 mM ATP and 30 mM DTT and measuring the […] emitted using a luminometer (Lumat BL 9500, Berthold). […] Luciferase enzymatic activity was evaluated and plotted in the graph. […]
# oestrogen receptors [2] = assay: Agonistic/antagonistic action of ER ligands: luciferase activity in tissues of line 2 ERE-luciferase transgenic mice; assay type: in vivo, mouse; conditions: line 2 mice; for effect on E2-dependent activation of luciferase expression in vivo: 250 μg/kg one hour before 50 μg/kg E2
# Method: To verify the expression of the transgene in the different tissues and its inducibility by oestrogens, 4 independent experiments were carried out on 8 female individuals of each line (4 heterozygotic and 4 homozygotic). For each experiment, two female individuals were ovariectomised. With the aim of reducing the oestrogens present in the bloodstream of the ovariectomised animals below the detection limit, there was a wait of two weeks before the induction experiment was carried out; the individuals were then subjected to subcutaneous (s.c.) injection of mineral oil with or without 50 μg/kg of dissolved 17-β oestradiol; 16 hours after the treatment, the individuals were sacrificed and the following tissues were dissected out of them: uterus, liver, spleen, lung, heart, kidney, hypothalamus and brain. The protein extracts were obtained by disintegration of the tissue with a homogenizer in the presence of a phosphate lysis buffer consisting of 0.1 M KH2PO4, 0.1 M K2HPO4, 1 mM DTT, 4 mM EGTA and 4 mM EDTA at pH 7.8. The suspension was frozen and thawed three times, and centrifuged for 30 minutes at 13,000 g; the supernatant was collected and equal quantities of protein, measured by the colorimetric method of Bradford, were subjected to enzymatic testing to reveal the activity of the enzyme luciferase. The method for detection of the activity of the reporter was carried out with a kit by the procedure recommended by the producer (Sigma), mixing ca. 20 μg of protein extract with the luciferin substrate in the presence of 0.5 mM ATP and 30 mM DTT and measuring the […] emitted using a luminometer (Lumat BL 9500, Berthold). With reference to FIGS. 5 to 7 of the attached drawings, individuals were subcutaneously injected (s.c.) with 50 μg/Kg 17β-estradiol (E2) or with vehicle (vegetable oil) and sacrificed at 24 hours. Luciferase enzymatic activity was evaluated and plotted in the graph. The arbitrary units are obtained considering the luciferase activity in the uterus of control individuals=100.
# By subcutaneous injection of the substance in the presence or in the absence of 17-β oestradiol it is in fact possible to compare the distribution and the intensity of expression of the luciferase gene in the various tissues and to compare it with the control or with the injection of 17-β oestradiol alone. The effect of in vivo administration of two known ER antagonists was investigated in line 2 of transgenic mice. […] Luciferase is expressed as fold induction obtained as the ratio between luciferase activity in ligands treated/control mice.
# [3] = tested on: ER reporter in primary bone marrow cells; assay: Luciferase expression in primary bone marrow cells from transgenic mice; assay type: cell-based, mouse; conditions: 16 hours; for luciferase accumulation in the presence of 1 nM E2: 100 nM ligand plus 1 nM E2; for luciferase accumulation, ligand alone: E2 0.01-10 nM, ICI and T 100 nM, Prog and Dex 10 nM
# Method: Two millions of bone marrow cells were suspended in phenol red-free RPMI 1640 with 10% stripped serum. […] Bars represent the average.+−.s.e.m. of 5 individual experiments each done in triplicate. *(P<0.01 as compared to the control), **(P<0.005 as compared to the control), ° (P<0.05 as compared to the T-treated); P were calculated with ANOVA followed by Scheffe test. […] As a control, we also tested progesterone and dexamethasone (10 nM).
# oestrogen receptor = assay: Time course of luciferase activity in bone and liver of transgenic mice after E2; assay type: in vivo, mouse; conditions: s.c. 50 μg/kg, sacrificed after 3, 6 or 16 hours
# oestrogen receptors [4] = assay: Tissue distribution of E2-dependent luciferase induction in ovariectomised female transgenic mice; assay type: in vivo, mouse; conditions: 26 tissues, ovariectomised 2-month old females, s.c., 16 hours
# Method: as §1
# The pharmacodynamics of any compound acting via intracellular receptors can also be correctly predicted by the transgenic model of the invention. As an illustrative example, […] luciferase activity was measured in 26 different tissues from 2-month old female mice which had been ovariectomised 2 weeks prior to the experiment. […]
Compound,effect on E2-dependent activation of luciferase expression in vivo (oestrogen receptors [2]),luciferase accumulation in the presence of 1 nM E2 [3],"luciferase accumulation, ligand alone [3]",further results
Clc1ccc(C(c2ccc(Cl)cc2)C(Cl)(Cl)Cl)cc1 [DDT],–,–,–,"persistence of luciferase induction (oestrogen receptors [1]): 72 h; time of maximal induction of luciferase activity (oestrogen receptors [1]; sacrificed at 3-72 hours, vs vehicle): 24 h"
4-hydroxytamoxifen,blockade,"higher luciferase accumulation, yet the level reached was still lower than with E2 alone",significant increase in luciferase levels even though lower than E2 at the same concentration,"agonist activity on luciferase expression in vivo (oestrogen receptors [2]; 250 μg/Kg alone, liver and brain): partial agonist activity; effect on E2-dependent activation of luciferase expression in vivo (oestrogen receptors [2]; listed as tamoxifen): inhibits the E2-dependent activation of luciferase expression"
"C[C@]12CC[C@@H]3c4ccc(O)cc4CC[C@H]3[C@@H]1CC[C@@H]2O [E2, 17β-estradiol]",–,–,dose-dependent increase,time of maximal luciferase accumulation (oestrogen receptor): 6 h; luciferase enzyme content in tissues compared to controls (oestrogen receptors [4]): induced an increase in the enzyme content compared to controls in oestrogen target organs
CC(=O)[C@H]1CC[C@H]2[C@@H]3CCC4=CC(=O)CC[C@]4(C)[C@H]3CC[C@]12C [progesterone],–,–,did not have any effect,–
"C[C@]12CC[C@@H]3c4ccc(O)cc4C[C@@H](CCCCCCCCC[S+]([O-])CCCC(F)(F)C(F)(F)F)[C@H]3[C@@H]1CC[C@@H]2O (some centres unmarked) [ICI 182,780]",blockade; also recorded: inhibits the E2-dependent activation of luciferase expression,blocked,did not sort [sic] any effect,–

# Reference: patent publication US8809618B2, “Transgenic mouse for screening and for studies of the pharmacodynamics and pharmacokinetics of ligands acting on the oestrogen receptor and its intracellular receptors, and method for the preparation thereof” (T.O.P. (Transgenic Operative Products) S.R.L., priority 2000, dated 2014)
